According to patent US20210290784A1, “POSITRON EMISSION TOMOGRAPHY (PET) RADIOTRACERS FOR IMAGING MACROPHAGE COLONY-STIMULATING FACTOR 1 RECEPTOR (CSF1R) IN NEUROINFLAMMATION” (The Johns Hopkins University, priority 2018, published 2021):

What was measured:
[1] = target: T1, CSF1R (Mus musculus, UniProt P09581)
T1 sequence (P09581 20-977): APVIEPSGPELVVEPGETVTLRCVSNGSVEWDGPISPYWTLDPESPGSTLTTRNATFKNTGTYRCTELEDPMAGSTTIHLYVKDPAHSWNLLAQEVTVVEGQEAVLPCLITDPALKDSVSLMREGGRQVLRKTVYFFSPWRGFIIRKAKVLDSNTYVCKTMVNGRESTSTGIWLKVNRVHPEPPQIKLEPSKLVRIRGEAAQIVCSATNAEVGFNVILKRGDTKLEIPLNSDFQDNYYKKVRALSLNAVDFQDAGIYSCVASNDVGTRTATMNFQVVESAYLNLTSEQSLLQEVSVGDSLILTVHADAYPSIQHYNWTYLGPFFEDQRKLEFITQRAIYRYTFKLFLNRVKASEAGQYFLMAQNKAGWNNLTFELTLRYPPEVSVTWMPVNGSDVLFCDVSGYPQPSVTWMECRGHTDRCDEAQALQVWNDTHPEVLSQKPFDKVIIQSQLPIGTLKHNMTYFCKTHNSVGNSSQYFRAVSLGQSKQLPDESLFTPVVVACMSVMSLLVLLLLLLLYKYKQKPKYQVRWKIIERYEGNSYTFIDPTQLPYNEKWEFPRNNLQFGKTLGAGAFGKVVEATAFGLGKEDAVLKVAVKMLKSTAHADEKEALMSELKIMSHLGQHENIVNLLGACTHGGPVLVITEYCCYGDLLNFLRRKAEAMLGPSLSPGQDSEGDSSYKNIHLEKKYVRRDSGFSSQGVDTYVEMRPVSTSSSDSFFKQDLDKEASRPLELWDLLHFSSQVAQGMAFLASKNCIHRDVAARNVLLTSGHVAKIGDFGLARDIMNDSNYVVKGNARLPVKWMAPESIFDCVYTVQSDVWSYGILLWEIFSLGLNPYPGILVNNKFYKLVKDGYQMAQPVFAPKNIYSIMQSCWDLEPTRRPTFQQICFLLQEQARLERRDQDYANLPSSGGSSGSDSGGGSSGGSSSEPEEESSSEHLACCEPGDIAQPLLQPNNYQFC

[2] = Mouse plasma and brain radiometabolite analysis; type: in vivo, mice
Description: The animals were injected IV with 37 MBq (1 mCi) [^11C]CPPC [specific radioactivity=673 GBq/μmol (18.2 Ci/μmol)] and sacrificed by cervical dislocation at 10 min (3 animals) and 30 min (3 animals) after the radiotracer injection. […] Radiometabolites of [^11C]CPPC in the mouse plasma and brain were analyzed using a general HPLC method described above for baboon. Before the HPLC analysis the mouse brain was homogenized in 2 mL of mixture 50% acetonitrile: 50% phosphate buffer (Et3N, H3PO4, pH 7.2). The homogenates were centrifuged (14000 g for 5 min) and supernatants filtered using 0.2 micron filter and filtrate was analyzed by radio-HPLC with phenomenex Gemini C18, 10μ, 4.6×250 mm and 2 mL/min isocratic elution and 50% acetonitrile-50% aqueous triethylamine, c=0.06 M and pH=7.2 as mobile phase. […] The radiometabolites poorly penetrate the blood-brain barrier and their presence in the brain is low (Table 4)

[3] = Whole-body radiation dosimetry in mice, extrapolated to human; type: in vivo
Description: Male CD-1 mice were injected with [^11C]CPPC as described above for baseline studies and were euthanized at 10, 30, 45, 60, and 90 min after treatment. The various organs were quickly removed and percentage injected dose (% ID) per organ was determined. The human radiation dosimetry of [^11C]CPPC was extrapolated from the mouse biodistribution data using SAAM II (Simulation Analysis and Modeling II) and OLINDA/EXM software. The data were analyzed commercially (RADAR, Inc).
Radiation dosimetry for [^11C]CPPC was studied in fifteen male CD-1 mice (23-27 g) following our published procedure (Stabin M G, et al. (2005)). A solution of [^11C]CPPC in 0.2 ml of saline (7.4 MBq or 0.2 mCi) was injected as a bolus into the lateral tail vein, and groups of mice (n=3) were euthanized at 10, 30, 45, 60, and 90 min after the radiotracer injection. The lungs, heart, kidneys, liver, spleen, intestine, stomach, and brain were quickly removed and put on ice. One femur and samples of thigh muscle, bone marrow and blood were also collected. The organs were weighed, and the tissue radioactivity was measured with an automated gamma counter (LKB Wallac 1282 CompuGamma CS Universal Gamma Counter). The percent injected dose per organ (% ID/organ) was calculated by comparison with samples of a standard dilution of the initial dose. All measurements were corrected for decay. Resultant values of % ID/organ were fit using the SAAM II software (Foster D M (1998)). Time integrals of activity (Stabin M G and Siegel J A (2003)) were entered into the OLINDA/EXM software (Stabin M G, et al. (2005)), using the adult male model. […] The number of disintegrations in the remainder of body was assumed to be equal to 100% of the activity administered integrated to total decay of ^11C, minus the disintegrations in other body organs.

[4] = male, baboon, in vivo, 90 min
[5] = test system: CSF1R; assay: Brain uptake in CSF1R knock-out vs control mice; type: in vivo; conditions: whole brain, 45 min
Description: B6.Cg-Csf1rtml.2Jwp/J (CSF1R knock-out, KO) mice (21-23 g; age=four to eight weeks; Jackson Laboratories, Bar Harbor, Me.) (5 animals) and age-matched C57BL/6J controls (23-27 g) (5 animals) were used. […] The outcome variables were calculated as % SUV.

[6] = two exponential fit of % ID/organ

[11CH3]N1CCN(c2ccc(NC(=O)c3ccc(C#N)o3)c(N3CCCCC3)c2)CC1 [[^11C]CPPC, 5-cyano-N-(4-(4-[^11C]methylpiperazin-1-yl)-2-(piperidin-1-yl)phenyl)furan-2-carboxamide]
ex vivo binding potential (BPex vivo) ([1]; LPS mice, (LPS uptake-sham uptake)/sham uptake): 0.53-0.62
SUVR uptake in i.p.-LPS mice vs controls ([1]; experiments 2 and 3, blood-corrected, 45 min): significantly greater
blocking with nonradiolabeled CPPC, % SUV radioactivity (experiment 1) ([1]; i.p.-LPS mice, CPPC 1 mg/kg IP, no blood correction): did not cause a significant reduction
specific fraction of whole-brain binding ([1]; i.p.-LPS mice, blocking with CPPC and compound 8): more than 50%
Brain Parent [^11C]CPPC, % ([2]; 10 min): 96.6 ± 0.1%
Plasma Parent [^11C]CPPC, % ([2]; 10 min): 70.2 ± 2.2%
Brain Parent [^11C]CPPC, % ([2]; 30 min): 95.1 ± 1.6%
Plasma Parent [^11C]CPPC, % ([2]; 30 min): 39.7 ± 1.3%
Activity observed in the intestines ([3]; CD-1 mice): ~35%
radiation burden to a human subject vs FDA limit ([3]; proposed dose of 740 MBq (20 mCi)): < 5 Rem
fitted metabolic model, Brain, first component % [3, 6]: 3.83%
fitted metabolic model, Brain, first component T-bio [3, 6]: 0.302 h
fitted metabolic model, Brain, second component % [3, 6]: 0.38%
fitted metabolic model, Brain, second component T-bio [3, 6]: ∞
fitted metabolic model, Heart, first component % [3, 6]: 1.00%
fitted metabolic model, Heart, first component T-bio [3, 6]: 0.272 h
fitted metabolic model, Heart, second component % [3, 6]: 0.14%
fitted metabolic model, Heart, second component T-bio [3, 6]: ∞
fitted metabolic model, Kidneys, first component % [3, 6]: 8.32%
fitted metabolic model, Kidneys, first component T-bio [3, 6]: 0.297 h
fitted metabolic model, Kidneys, second component % [3, 6]: 1.52%
fitted metabolic model, Kidneys, second component T-bio [3, 6]: ∞
fitted metabolic model, Liver, first component % [3, 6]: 97.6%
fitted metabolic model, Liver, first component T-bio [3, 6]: 0.764 h
fitted metabolic model, Liver, second component % [3, 6]: −100%
fitted metabolic model, Liver, second component T-bio [3, 6]: 0.335 h
fitted metabolic model, Lungs, first component % [3, 6]: 8.27%
fitted metabolic model, Lungs, first component T-bio [3, 6]: 0.159 h
fitted metabolic model, Lungs, second component % [3, 6]: 1.53%
fitted metabolic model, Lungs, second component T-bio [3, 6]: 2.27 h
fitted metabolic model, Spleen, first component % [3, 6]: 1.43%
fitted metabolic model, Spleen, first component T-bio [3, 6]: 0.823 h
fitted metabolic model, Spleen, second component % [3, 6]: −1.24%
fitted metabolic model, Spleen, second component T-bio [3, 6]: 0.145 h
total radiometabolites in blood [4]: 71-76%
brain uptake (% SUV) in CSF1R KO mouse brain vs. controls [5]: comparable
